Data set [1] has as its system Panc 02 pancreatic cancer model. Nature of the data set: In vivo antitumor effect, Panc 02 pancreatic cancer model (Example 55). Set-up: species or system mouse. Particulars: ICR mice, 4 doses. The procedure: Panc 02 pancreatic cancer cells were cultured in DMEM medium at 37° C. with 5% CO2. Cells were passaged every two days during logarithmic growth phase until reaching a concentration of 1×10^7 cells/mL. Under sterile conditions, Panc 02 cells were subcutaneously implanted into the right axilla of ICR mice to establish the pancreatic cancer model. Once the tumor volume grew to 100-300 mm^3, mice were randomly divided into 6 groups of 6 animals each. Groups included blank control group, TP (DMSO) solution group, Minnelide solution group, and TP-LA liposome dose groups. Drugs were administered via tail vein injection at a dose of 0.6 mg/kg (based on TP) every other day for a total of 4 doses. On the third day after the last administration, mice were euthanized. Body weights were recorded, tumors were excised and weighed, and tumor inhibition rates were calculated.
[formula] 3. Antitumor Effects

In a further data set the test system is ear vein. Nature of the data set: Vascular irritation evaluation, rabbit ear vein. Format: in vivo. Particulars: rabbits, ear vein 0.22 mg/kg (based on TP), daily for three days, histology 48 hours after last administration. As to the method:
[…] (weighing 1.5-2.0 kg) were randomly divided into 6 groups. Each group received intravenous injection via the right ear vein of either saline solution, TP-LA liposomes prepared according to Examples 35, 42, and 53, TP (DMSO) solution, or Minnelide solution, at a dose of 0.22 mg/kg (calculated based on TP), administered at a rate of 1 mL/min. Simultaneously, saline of equal volume was administered via the left ear vein as a control. This procedure was repeated daily for three consecutive days.
During each day of administration, the animals' behavior and pathological changes at the injection site were observed macroscopically. Euthanasia was performed 48 hours after the last administration. Tissue samples were collected approximately 2.0 cm towards the central end from the injection site on the ear vein, fixed in 10% paraformaldehyd solution, dehydrated using an ethanol gradient, embedded in paraffin, and sectioned into slices stained with hematoxylin and […]. All samples were examined using a BX43-DP21 light microscope (Olympus Corporation, Japan), and pathological changes were assessed.

The subject of a further data set is advanced solid tumors. The settings on record: patients with advanced solid tumors, intravenous once a week; cited from earlier work.
Data set [2] can be described thus: Log P determination by shake-flask. Format: physicochemical. The procedure:
The log P was determined by shake-flask. First, a certain amount of water and n-octanol are added into the funnel, shaken and separated to obtain water-saturated n-octanol solution and n-octanol saturated aqueous solution; quantify and accurately weigh triptolide and its derivatives in a volumetric bottle containing water-saturated n-octanol solution, and dissolve by ultrasound, drop water-saturated n-octanol solution, dilute and volume. Take 0.5 mL of this solution in a 5 mL volumetric flask, dilute with MeOH and volume. The concentration of triptolide and its derivatives was determined by the assay method; take the above solution to the Xilin bottle, add 10 times the amount of n-octanol saturated aqueous solution, and shake in a bath of 37° C. and 75 rpm for one day, so that triptolide and its derivatives reach equilibrium state in aqueous and organic phase. The n-octanol phase was transferred into a centrifuge tube, centrifuged at 3000 rpm for 10 min, precision measuring n-octanol phase in a volumetric flask, diluted 10 times with MeOH solution, and measured the content of triptolide and its derivatives in n-octanol phase. Drug concentration in the aqueous phase=total drug concentration-drug concentration in the n-octanol phase.
[formula] 3. The Content Determination Method of Triptolide and Its Derivatives in This Embodiment is Determined by High-Performance Liquid Chromatography (2020 Edition, Chinese Pharmacopoeia's Fourth Part Rule 0512), as Follows: • Chromatographic conditions: using chromatographic column: Agilent ZORBAX Eclipse Plus C18 column (4.6 mm×250 mm, 5 μm), mobile phase: 100% MeOH, column temperature: 30° C., flow rate: 1.0 mL/min, sample input: 20 μL, detection wavelength: 218 nm. • Preparation of control solution: accurately weighing triptolide and its derivatives 10 mg, placed in a 10 mL volumetric flask, dissolved with methanol and diluted to the scale line, shake well, as the control reserve solution. • Preparation of standard curve: Reserve solutions of different volumes of control were diluted to produce series solutions with mass concentrations of 5.00, 10.00, 25.00, 50.00, 100.00, 250.00, and 500.00 μg/mL, respectively. 20 μL of each sample was injected into the HPLC system and analyzed according to the “Chromatographic Conditions”. With the concentration C (μg/mL) as the abscissa and the peak area A as the ordinate, the linear regression is obtained. • Assay: accurately absorb 1 mL of each sample solution of triptolide and its derivatives to a 5 mL volumetric flask, dilute with methanol to the scale line, and vortex-mix evenly. 20 μL was injected into the HPLC chromatogram, recorded and calculated by the peak area according to the standard curve method. 4. Experimental Results

Data set [3] concerns Panc 02 pancreatic cancer model. In words: In vivo antitumor effect, Panc 02 pancreatic cancer model (Example 5). Set-up: species or system mouse. The settings on record: ICR mice, tail vein 0.6 mg/kg (per TP) every two days, 4 doses. As to the method:
Mouse pancreatic cancer Panc02 cells were cultured in DMEM medium at 37° C., 5% CO2 and passaged on average every two days. During the log growth phase, the cell concentration was adjusted to 1×10^7/mL, and Panc 02 cells were subcutaneously seeded in the right axilla of ICR mice under sterile conditions to establish a mouse pancreatic cancer model. When the mouse tumor volume was grown to 100-300 mm^3, the mice were randomly divided into 6 groups according to the tumor volume, with 6 mice in each group. The blank, TP (DMSO), TP-SA, TP-EA, TP-BA, and TP-LA were set. The mouse tail vein injection was 0.6 mg/kg (per TP), and the blank group was given 0.2 mL saline every two days for a total of 4 doses. The mice were killed on the third day of drug withdrawal, the mice were weighed, the tumor body was dissected and weighed, and the tumor suppression rate was calculated.
[formula] 3. Anti-Tumor Effect

The nature of data set [4]: Pharmacokinetic study in rats. The settings on record: male, Sprague-Dawley (SD), rat, in vivo, iv, 0.6 mg/kg. As to the method:
Rat tail vein dose of equimolar TP 0.6 mg/kg, blood collection time point set at 6 min, 12 min, 18 min, 30 min, 48 min, 1 h, 1.5 h, 2 h, 2.5 h, 3 h, 5 h, 12 h, 24 h, 72 h, 5 SD rats from each group (♂).
Sample processing and analysis method: take plasma with 4 times the amount of methanol to precipitate protein, centrifugation at 12000 r/min for 10 min; remove the supernatant to remove methanol, extract the remaining residue with 400 μL methyl-t-butyl ether twice, centrifugation at 12000 r/min for 10 min. The organic extraction phase was collected, concentrated and dried, 100 μL of methanol was added for redissolution, and the supernatant was centrifuged into the LC-MS/MS system to calculate the plasma concentration by using DAS 2.0 software.

The conditions of data set [5]: in vivo; triptolide released via in vivo conversion of the liposomes, or triptolide itself; cited from earlier work.
The conditions of data set [6]: CN106946975A; cited from earlier work.
For a further data set, the system named is tumor. Particulars: Huang 2020; cited from earlier work.
The mark [7] stands for this setting: tail vein 0.6 mg/kg (based on TP) every other day.
Where [8] appears, read: shake-flask, n-octanol/water, 37° C., read-out: log P.

Data on six molecules can be found in US12605335B2, “Triptolide lignocerate, liposome thereof and preparation method therefor” (SHANGHAI WEI ER BIOPHARMACEUTICAL TECHNOLOGY CO., LTD., priority 2022, dated 2026).

Structures are written as SMILES. Like-named read-outs stand apart in the source and are kept apart here.

As to `CC(C)[C@]12O[C@H]1[C@@H]1O[C@]13[C@]1(O[C@H]1C[C@H]1C4=C(CC[C@@]13C)C(=O)OC4)[C@@H]2OCOP(=O)(O)O` [Minnelide], in data set [1] (setting [7]), the Body weight change was 1.09%, the Mean tumor weight is 0.222 ± 0.029 g and the Tumor inhibition rate came out at 68.19%. Further, the “tail vein irritation after administration” value in data set [1] (tail vein 0.6 mg/kg (based on TP)) was “varying degrees of tail swelling and ulceration”. Also, in the data set with ear vein, the “vascular irritation, pathological changes of ear vein” value is “congestion and some instances of bleeding”.
Take `CC(C)[C@]12O[C@H]1[C@@H]1O[C@]13[C@]1(O[C@H]1C[C@H]1C4=C(CC[C@@]13C)C(=O)OC4)[C@@H]2OC(=O)CCC(=O)[O-].[Na+]` [PG490-88Na]: in the data set on advanced solid tumors, the “grade of most frequently reported adverse reactions (anemia, malaise, nausea, vomiting, diarrhea, constipation)” value was 1-2 and the “interindividual variability in pharmacokinetic properties” value was 2- to 3 fold.
For the molecule `CCCCCCCCCCCCCCCCCCCCCC(=O)O[C@@H]1[C@@]2(C(C)C)OC2[C@@H]2O[C@]23[C@]12O[C@H]2CC1C2=C(CC[C@@]13C)C(=O)OC2` (stereo partly shown) [Triptolide behenate, triptolide behenate], in data set [2] (setting [8]), the logP at 1 day amounted to 2.78 ± 0.04.
Still for that read-out and setting: to `CCCCCCCCCCCCCCCCCCCCCCCC(=O)O[C@@H]1[C@@]2(C(C)C)OC2[C@@H]2O[C@]23[C@]12O[C@H]2CC1C2=C(CC[C@@]13C)C(=O)OC2` (stereo partly shown) [Triptolide lignocerate, triptolide lignocerate] belongs 3.12 ± 0.03; to `CCCCCCCCCCCCCCCCCC(=O)O[C@@H]1[C@@]2(C(C)C)OC2[C@@H]2O[C@]23[C@]12O[C@H]2CC1C2=C(CC[C@@]13C)C(=O)OC2` (stereo partly shown) [Triptolide stearate, triptolide stearate], 2.41 ± 0.04.
As for `CC(C)[C@]12O[C@H]1[C@@H]1O[C@]13[C@]1(O[C@H]1C[C@H]1C4=C(CC[C@@]13C)C(=O)OC4)[C@@H]2O` [Triptolide], in data set [2], the logP at 1 day stood at 0.52 ± 0.01. Moreover, in data set [3], the Mean tumor weight was determined as 0.517 ± 0.097 g and the “Tumor Suppression rate” value amounted to 41.12%. For the same molecule, in [4], the AUC(0-inf) (in general, the area under the concentration-time curve extrapolated to infinity) was determined as 0.337 ng·h/mL; the Cmax (usually the peak of the concentration-time curve) amounted to 0.698 ng/mL; the MRT (in general, a mean duration of stay, worked out from the concentration-time curve) was found to be 32.8 min; the “[formula] (half-life)” value was determined as 13.2 ± 2.4 min. In [1] (setting [7]), this molecule showed a Mean tumor weight of 0.417 ± 0.097 g and a Tumor inhibition rate of 40.26%. Moreover, the “biological half-life of triptolide” value in [5] was 15 min. The liposomal encapsulation rate entry in [6] is given as “less than 50%”. Moreover, the Tumor inhibition rate with tumor is 17.67%.
